According to patent EP0068669A1, “Secondary phenylethanol amines, processes for their preparation and their pharmaceutical application” (priority 1981, dated 1983):

Columns and labels:
Format in all cases: in vivo
Female CFLP mice [1] = test: Effect on energy expenditure and food intake of mice; details: 19.5-26.3 mg/kg p.o. (per compound, see Dose column); for Mean Food Intake: percentage of mean food intake of mice dosed with water, over 21 hours after a single oral dose; for Mean Energy Expenditure (0-3 h) / Mean Energy Expenditure (0-21 h): percentage of mean rate of energy expenditure of mice dosed with water, single oral dose, 12 mice; for Mean Energy Expenditure (0-3 h): 0-3 h after dosing; for Mean Energy Expenditure (0-21 h): 0-21 h after dosing
Protocol: The compounds were dissolved in water by addition of one mole of hydrochloric acid per mole of compound and these solutions were administered orally to each of 12 mice. A further 12 mice were dosed orally with water. The mice were placed in boxes through which air was drawn and the oxygen content of the air leaving the boxes was measured. The energy expenditure of the mice was calculated for 21 hours after dosing from the volume of air leaving the boxes and its oxygen content, following the principles described by J.B. de V. Weir, J. Ph^ysiol. (London) 109, 1-9, (1949). The food intake of the mice was measured over this same period of 21 hours. The results are expressed as a percentage of the mean food intake or rate of energy expenditure of the mice dosed with water.

Female CFLP mice [2] = test: Hypoglycaemic activity, subcutaneous glucose load in fasted mice; details: oral dose 1.0-12.5 μmol/kg (per compound, see Dose column), 30 minutes before glucose 1 g/kg subcutaneously; area over 2 hours compared with control mice given water; mice fasted 24 hours
Protocol: Female CFLP mice, weighing approximately 25 g, were fasted for 24 hours prior to the study. The compounds under study were administered orally as an aqueous solution to each of 8 mice. 30 minutes later a blood sample (20 µℓ) was obtained from the tail for the analysis of blood glucose. Immediately after taking this blood sample, glucose (1 g/kg body weight) was administered subcutaneously to each mouse. 8 mice were given water as a control. Blood samples were then obtained from each mouse at 30-minute intervals for 120 minutes.
Compounds that produced a significant (P<0.05) reduction of blood glucose, compared with control mice given water, at any time interval , were considered active. The area under the blood glucose curve over the 2 hour period after the administration of the glucose was calculated for each compound and compared with the value for control animals.

Male CFLP mice = test: Platelet aggregation inhibition activity, response to intravenous collagen; details: oral dose two hours before intravenous collagen 400 µg/kg; blood platelet concentration 30 sec after collagen; Aspirin 600(108), Example 8 2.5 (1) µmol(mg)/kg p.o.
Protocol: Male CFLP mice (ca 20 g, n=8) were dosed orally with compound or vehicle (controls) after an overnight fast. Two hours later each mouse received an intravenous dose of collagen (400 µg/kg, pH 6-6.6). Exactly 30 sec after injection of collagen, each mouse was placed in a chamber of C02 until respiration ceased. […] Each concentration was expressed as a per cent of that obtained in a tail blood sample taken immediately before injection of collagen.

Row | Structure (SMILES) | Mean Food Intake (Female CFLP mice [1]) [percentage] | Mean Energy Expenditure (0-3 h) (Female CFLP mice [1]) [percentage] | Mean Energy Expenditure (0-21 h) (Female CFLP mice [1]) [percentage] | % Reduction in area under Blood glucose curve (Female CFLP mice [2]) [%] | % Inhibition of response to collagen (Male CFLP mice)
1 | CC(Cc1ccc([N+](=O)[O-])cc1)NCC(O)c1cccc(C(F)(F)F)c1 (centres unmarked) [Example 9, N-[2-(4-Nitrophenyl)-1-methylethyl]-2-hydroxy-2-(3-trifluoromethylphenyl) ethanamine] | 94 | 112 | 115 | 13.2 | –
2 | CC(=O)Oc1ccccc1C(=O)O [Aspirin, reference compound] | – | – | – | – | 38 p<0.05%
3 | CC(Cc1ccc(N(C)C)cc1)NCC(O)c1cccc(C(F)(F)F)c1 (centres unmarked) [Example 10, N-[2-(4-Dimethylaminophenyl]-1-methylethyl]-2-hydroxy-2-(3-trifluoromethylphenvl)ethanamine] | 70 | 169 | 125 | – | –
4 | CC(=O)Nc1ccc(CC(C)NCC(O)c2cccc(C(F)(F)F)c2)cc1 (centres unmarked) [Example 4, N-(2-(4-Acetylaminophenyl)-1-methylethyl)-2-hydroxy-2-(3-trifluoromethylphenyl)ethanamine] | 72 | 151 | 115 | 15.9 | –
5 | CCOC(=O)Nc1ccc(CC(C)NCC(O)c2cccc(C(F)(F)F)c2)cc1 (centres unmarked) [Example 3, N-[2-(4-Ethoxycarbonylaminophenyl)-1-methylethyl]-2-hydroxy-2-(3-trifluoromethylphenyl)ethanamine] | 76 | 139 | 121 | – | –
6 | CNC(=O)C1CCN(c2ccc(CC(C)NCC(O)c3cccc(C(F)(F)F)c3)cc2)CC1 (centres unmarked) [Example 14, N-[2-(4-(1-(4-N'-Methylcarboxamido)piperidyl)phenyl)-1-methylethyl]-2-hydroxy-2-(3-trifluoromethylphenyl)ethanamine] | 106 | 118 | 102 | – | –
7 | CC(Cc1ccc(NS(C)(=O)=O)cc1)NCC(O)c1ccccc1 (centres unmarked) [Example 1, N-(2-(4-Methylsulphonylaminophenyl)-1-methylethyl]-2-hydroxy-2-phenylethanamine] | 80 | 130 | 95 | 24.7 | –
8 | CC(Cc1ccc(N2CCCC2)cc1)NCC(O)c1cccc(C(F)(F)F)c1 (centres unmarked) [Example 11, N-[2-(4-(1-Pyrrolidyl)phenyl)-1-methylethyl] -2-hydroxy-2-(3-trifluoromethylphenyl)ethanamine] | 95 | 151 | 112 | – | –
9 | CNC(=O)Nc1ccc(CC(C)NCC(O)c2cccc(C(F)(F)F)c2)cc1 (centres unmarked) [Example 5, N-[2-(4-Methylaminocarbonylaminophenyl)-1-methylethyl]-2-hydroy-2-(3-trifluoromethylphenyl)ethanamine] | 72 | 159 | 121 | – | –
10 | CC(Cc1ccc(N)cc1)NCC(O)c1cccc(C(F)(F)F)c1 (centres unmarked) [Example 7, N-[2-(4-Aminophenyl)-1-methylethyl]-2-hydroxy-2-(3-trifluoromethylphenyl) ethanamine] | 84 | 182 | 118 | 38.0 | –
11 | CCNc1ccc(CC(C)NCC(O)c2cccc(C(F)(F)F)c2)cc1 (centres unmarked) [Example 6, N-[2-(4-Ethylaminophenyl)-1-methylethyl]-2-hydroxy-2-(3-trifluoromethvlphenvl)ethanamine] | 108 | 169 | 128 | – | –
12 | CC(Cc1ccc(N2CCOCC2)cc1)NCC(O)c1cccc(C(F)(F)F)c1 (centres unmarked) [Example 12, N-[2-(4-(4-Morpholino)phenyl)-1-methylethyl]-2-hydroxy-2-(3-trifluoromethylphenyl)ethanamine] | 72 | 143 | 121 | – | –
13 | CC(Cc1ccc(NS(C)(=O)=O)cc1)NCC(O)c1cccc(C(F)(F)F)c1 (centres unmarked) [Example 2, N-[2-(4-Methylsulphonylaminophenyl)-1-methylethyl]-2-hydroxy-2-(3-trifluoromethylphenyl)ethanamine] | 99 | 142 | 102 | – | –
14 | CCOC(=O)C1CCN(c2ccc(CC(C)NCC(O)c3cccc(C(F)(F)F)c3)cc2)CC1 (centres unmarked) [Example 13, N-[2-(4-(1-(4-Carboethoxy)piperidyl)phenyl)-1-methylethyl]-2-hydroxy-2-(3-trifluoromethylphenyl)ethanamine] | 95 | 121 | 103 | – | –
15 | COC(=O)CNc1ccc(CC(C)NCC(O)c2cccc(C(F)(F)F)c2)cc1 (centres unmarked) [Example 8, N-[2-(4-Methoxycarbonylmethylaminophenyl)-1-methylethyl] -2-hydroxy-2-(3-trifluoromethylphenyl) ethanamine] | – | 140 | – | 36.2 | 42 p<0.02%
